Reference: ChEMBL document CHEMBL1152511, “Structural basis for alpha-conotoxin potency and selectivity” (Bioorg Med Chem, 2009)
pIC50: −log10 of the molar value. Residues, ends and D or L forms follow the SMILES beside them.

Assays:
[1] = biological target: Neuronal acetylcholine receptor; alpha3/beta2 (Homo sapiens, UniProt P17787+P32297); assay: Inhibition of alpha3beta2 nAChR; type: protein-complex assay
[2] = biological target: Neuronal acetylcholine receptor; alpha6/beta2 (Homo sapiens, UniProt P17787+Q15825); assay: Inhibition of alpha6beta2 nAChR; type: protein-complex assay
Sequence of Neuronal acetylcholine receptor; alpha6/beta2 (P17787 whole entry): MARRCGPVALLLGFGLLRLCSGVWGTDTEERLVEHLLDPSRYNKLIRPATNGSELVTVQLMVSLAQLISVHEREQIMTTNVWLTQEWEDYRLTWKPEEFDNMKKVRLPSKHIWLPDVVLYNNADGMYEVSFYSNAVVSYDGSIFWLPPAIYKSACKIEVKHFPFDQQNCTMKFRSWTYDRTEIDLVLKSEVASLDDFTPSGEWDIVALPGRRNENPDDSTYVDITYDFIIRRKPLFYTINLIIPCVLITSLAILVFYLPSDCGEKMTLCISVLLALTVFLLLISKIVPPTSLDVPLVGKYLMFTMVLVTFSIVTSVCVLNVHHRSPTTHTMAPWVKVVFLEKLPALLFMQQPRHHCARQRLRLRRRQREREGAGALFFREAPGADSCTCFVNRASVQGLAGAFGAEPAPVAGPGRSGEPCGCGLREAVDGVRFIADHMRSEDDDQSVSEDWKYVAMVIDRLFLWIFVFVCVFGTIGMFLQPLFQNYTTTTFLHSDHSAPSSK
Sequence of Neuronal acetylcholine receptor; alpha6/beta2 (Q15825 whole entry): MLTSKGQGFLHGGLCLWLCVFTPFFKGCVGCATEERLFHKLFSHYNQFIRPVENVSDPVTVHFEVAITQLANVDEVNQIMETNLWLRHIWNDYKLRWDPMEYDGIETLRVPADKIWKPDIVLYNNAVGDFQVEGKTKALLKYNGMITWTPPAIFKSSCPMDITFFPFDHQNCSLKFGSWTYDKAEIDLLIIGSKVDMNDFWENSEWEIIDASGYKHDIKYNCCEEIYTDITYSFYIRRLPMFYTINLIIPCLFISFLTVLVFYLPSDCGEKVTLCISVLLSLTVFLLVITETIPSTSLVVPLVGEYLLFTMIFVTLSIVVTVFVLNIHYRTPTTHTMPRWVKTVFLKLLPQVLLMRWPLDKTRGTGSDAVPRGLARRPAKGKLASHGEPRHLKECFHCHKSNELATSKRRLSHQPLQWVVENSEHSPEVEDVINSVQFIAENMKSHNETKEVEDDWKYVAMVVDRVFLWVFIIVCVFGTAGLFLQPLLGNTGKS

[3] = Selectivity for alpha3beta2 nAChR over alpha6beta2 nAChR
[4] = Selectivity ratio of IC50 for alpha6beta2 nAChR to IC50 for alpha3beta2 nAChR
Macaca mulatta [5] = species on record: Macaca mulatta; assay: Binding affinity to monkey alpha-6-alpha-4-beta-2 nAChR
Macaca mulatta [6] = species on record: Macaca mulatta; assay: Binding affinity to monkey alpha-6-(non-alpha-4)-beta-2 nAChR
Macaca mulatta [7] = species on record: Macaca mulatta; assay: Selectivity ratio of monkey alpha-6-alpha-4-beta-2 nAChR over monkey alpha-6-(non-alpha-4)-beta-2 nAChR

Sequence of Neuronal acetylcholine receptor; alpha3/beta2 (P17787 whole entry): as the sequence (P17787 whole entry) above
Sequence of Neuronal acetylcholine receptor; alpha3/beta2 (P32297 whole entry): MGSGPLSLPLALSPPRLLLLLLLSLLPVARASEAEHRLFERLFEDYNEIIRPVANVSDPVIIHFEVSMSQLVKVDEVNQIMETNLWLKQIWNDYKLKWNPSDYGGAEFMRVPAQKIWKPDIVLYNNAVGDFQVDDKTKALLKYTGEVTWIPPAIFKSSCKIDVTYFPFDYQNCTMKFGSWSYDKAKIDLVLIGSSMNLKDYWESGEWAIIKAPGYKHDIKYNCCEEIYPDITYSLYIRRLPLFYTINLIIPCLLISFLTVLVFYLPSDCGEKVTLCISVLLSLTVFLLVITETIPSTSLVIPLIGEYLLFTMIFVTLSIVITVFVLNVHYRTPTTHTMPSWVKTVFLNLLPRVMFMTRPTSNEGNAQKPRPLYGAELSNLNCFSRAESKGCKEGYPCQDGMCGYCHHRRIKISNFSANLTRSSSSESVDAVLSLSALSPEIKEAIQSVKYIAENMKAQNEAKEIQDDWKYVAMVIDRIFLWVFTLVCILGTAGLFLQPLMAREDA

With `CC(C)C[C@H](NC(=O)[C@H](CC(N)=O)NC(=O)[C@H](CO)NC(=O)[C@H](Cc1cnc[nH]1)NC(=O)[C@H](CCC(=O)O)NC(=O)[C@H](CC(C)C)NC(=O)[C@H](Cc1cnc[nH]1)NC(=O)[C@H](CS)NC(=O)[C@@H](NC(=O)[C@@H]1CCCN1C(=O)[C@H](CC(N)=O)NC(=O)[C@H](CO)NC(=O)[C@H](CS)NC(=O)[C@H](CS)NC(=O)CN)C(C)C)C(=O)N[C@@H](CS)C(=O)O` as the compound, how does the pIC50 [1] read?
The pIC50 was 9.30.

What about the pIC50 [2] of the same compound?
Its pIC50 is 9.41.

With `CC[C@H](C)[C@H](NC(=O)[C@H](CCC(N)=O)NC(=O)[C@@H]1CCCN1C(=O)[C@H](CC(N)=O)NC(=O)[C@H](Cc1cnc[nH]1)NC(=O)[C@@H](NC(=O)[C@@H](NC(=O)[C@H](CS)NC(=O)[C@@H](NC(=O)[C@@H]1CCCN1C(=O)[C@H](CC(N)=O)NC(=O)[C@H](CO)NC(=O)[C@H](CS)NC(=O)[C@H](CS)NC(=O)[C@@H]1CCCN1C(=O)[C@H](CC(=O)O)NC(=O)[C@@H](N)CCCNC(=N)N)C(C)C)[C@@H](C)O)C(C)C)C(=O)N[C@@H](CS)C(=O)O` (H-RDPCCSNPVCTVHNPQIC-OH) as the compound, how does the pIC50 [1] read?
The pIC50 was 7.13.

What about the Selectivity ratio [3] of the same compound?
The Selectivity ratio was 75.

What about the pIC50 [2] of the same compound?
Its pIC50 is 9.02.

What about the Ratio IC50 [4] of the same compound?
The Ratio IC50 was 78.1.

With `CC[C@H](C)[C@H](NC(=O)[C@H](Cc1cnc[nH]1)NC(=O)[C@H](CCC(N)=O)NC(=O)[C@H](CC(N)=O)NC(=O)[C@H](CC(N)=O)NC(=O)CNC(=O)[C@H](C)NC(=O)[C@H](CS)NC(=O)[C@H](C)NC(=O)[C@@H]1CCCN1C(=O)[C@H](Cc1cnc[nH]1)NC(=O)[C@H](CO)NC(=O)[C@H](CS)NC(=O)[C@H](CS)NC(=O)CN)C(=O)N[C@@H](CS)C(=O)O` as the compound, how does the pIC50 [1] read?
Its pIC50 is 8.96.

And the pIC50 [2]?
The pIC50 was 8.52.

What about the Ratio IC50 [4] of the same compound?
The Ratio IC50 was 0.4.

With `CC(C)C[C@H](NC(=O)[C@H](Cc1cnc[nH]1)NC(=O)[C@H](CS)NC(=O)[C@@H](NC(=O)[C@@H]1CCCN1C(=O)[C@H](CC(N)=O)NC(=O)[C@H](CO)NC(=O)[C@H](CS)NC(=O)[C@H](CS)NC(=O)CN)C(C)C)C(=O)N[C@@H](C)C(=O)N[C@@H](Cc1cnc[nH]1)C(=O)N[C@@H](CO)C(=O)N[C@@H](CC(N)=O)C(=O)N[C@@H](CC(C)C)C(=O)N[C@@H](CS)C(=O)O` (H-GCCSNPVCHLAHSNLC-OH) as the compound, how does the Activity (Macaca mulatta [5]) read?
Its Activity is 51 pM.

And the pIC50 [1]?
The pIC50 was 8.06.

And the Activity (Macaca mulatta [6])?
The Activity was 9.7 fM.

And the Selectivity ratio (Macaca mulatta [7])?
The Selectivity ratio was 5300.

What about the pIC50 [2] of the same compound?
Its pIC50 is 9.80.

What about the Ratio IC50 [4] of the same compound?
Its Ratio IC50 is 54.5.
